# Calls of active or inactive are those of the source. The rule behind the calls is not given here.
# Tests used:
# Salmonella typhimurium [1] = experiment: Bactericidal activity against Salmonella typhimurium ATCC 14028 at 0.125 to 1 times MIC after 24 hrs by dose-kill assay; format: functional, organism-based; settings: Salmonella enterica subsp. enterica serovar Typhimurium
# Salmonella typhimurium [2] = experiment: Bactericidal activity against Salmonella typhimurium ATCC 14028 at 10 uM up to 9 hrs; format: functional, organism-based; settings: Salmonella enterica subsp. enterica serovar Typhimurium
# Salmonella typhimurium [3] = experiment: Bactericidal activity against Salmonella typhimurium ATCC 14028 at 1 to 2 times MIC after 2 hrs by time-kill assay; format: functional, organism-based; settings: Salmonella enterica subsp. enterica serovar Typhimurium
# Salmonella typhimurium [4] = experiment: Bactericidal activity against Salmonella typhimurium ATCC 14028 at MIC up to 6 hrs by time-kill assay; format: functional, organism-based; settings: Salmonella enterica subsp. enterica serovar Typhimurium
# Salmonella typhimurium [5] = experiment: Bactericidal activity against Salmonella typhimurium ATCC 14028 infected in mouse RAW264.7 cells assessed as log reduction in intracellular bacterial load at 10 uM after 10 hrs in presence of gentamycin; format: functional, Salmonella enterica subsp. enterica serovar Typhimurium
# Salmonella typhimurium [6] = experiment: Bactericidal activity against Salmonella typhimurium ATCC 14028 at 0.03125 to 4 times MIC after 24 hrs by dose-kill assay; format: functional, organism-based; settings: Salmonella enterica subsp. enterica serovar Typhimurium
# Salmonella typhimurium [7] = experiment: Antibacterial activity against Salmonella typhimurium ATCC 14028 at pH 7 after 16 to 18 hrs by broth microdilution method; format: functional, Salmonella enterica subsp. enterica serovar Typhimurium; settings: Salmonella enterica
# Salmonella typhimurium [8] = experiment: Bactericidal activity against Salmonella typhimurium ATCC 14028 infected in mouse RAW264.7 cells assessed as log reduction in intracellular bacterial load at 5 uM after 10 hrs in presence of gentamycin; format: functional, Salmonella enterica subsp. enterica serovar Typhimurium
# Salmonella typhimurium [9] = experiment: Bactericidal activity against Salmonella typhimurium ATCC 14028 at 10 uM within 3 to 9 hrs; format: functional, Salmonella enterica subsp. enterica serovar Typhimurium
# Salmonella typhimurium [10] = experiment: Antibacterial activity against Salmonella typhimurium ATCC 14028 assessed as survival at 10 uM after 3 hrs by broth microdilution method; format: functional, Salmonella enterica subsp. enterica serovar Typhimurium
# [11] = Drug uptake in mouse RAW264.7 cells at 2 uM using FITC-labeled test compound at 4 degC after 2 hrs in presence of lipid raft disruptor MbetaCD by trypan blue staining-based flow cytometry; format: ADME, cell-based; settings: raw264.7, 2 h
# [12] = Drug uptake in mouse RAW264.7 cells at 2 uM using FITC-labeled test compound at 4 degC after 2 hrs in presence of macropinocytosis inhibitor amiloride by trypan blue staining-based flow cytometry; format: ADME, cell-based; settings: raw264.7, 2 h
# [13] = Drug uptake in mouse RAW264.7 cells at 0.5 uM using FITC-labeled test compound at 4 degC after 2 hrs by flow cytometry; format: ADME, cell-based; settings: raw264.7, 2 h
# [14] = Cytotoxicity against mouse RAW264.7 cells assessed as cell survival at 100 uM after 8 hrs by MTT assay; format: cell-based; settings: read-out: Survival
# [15] = Drug uptake in cytosol of mouse RAW264.7 cells at 5 uM using FITC-labeled test compound after 5 hrs by Hoechst 33342/FM 4-64 staining-based confocal microscopic analysis; format: ADME, subcellular
# [16] = Drug internalization in mouse RAW264.7 cells at 1 uM using FITC-labeled test compound after 0.5 hrs by flow cytometry; format: ADME, cell-based; settings: raw264.7, 0.5 h
# [17] = Drug uptake in mouse RAW264.7 cells at 5 uM using FITC-labeled test compound after 0.5 hrs by flow cytometry; format: ADME, cell-based; settings: raw264.7, 0.5 h
# [18] = Drug uptake in mouse RAW264.7 cells at 5 uM using FITC-labeled test compound after 2 hrs by flow cytometry; format: ADME, cell-based; settings: raw264.7, 2 h
# [19] = Drug uptake in mouse RAW264.7 cells at 2 uM using FITC-labeled test compound after 2 hrs at 4 degC in presence of microtubule polymerization inhibitor nocodazole by trypan blue staining-based flow cytometry; format: ADME, cell-based; settings: raw264.7, 2 h
# [20] = Drug internalization in mouse RAW264.7 cells using FITC-labeled test compound by flow cytometry; format: ADME, cell-based
# [21] = Drug internalization in mouse RAW264.7 cells at 1 uM using FITC-labeled test compound after 2 hrs by flow cytometry; format: ADME, cell-based; settings: raw264.7, 2 h
# [22] = Drug uptake in mouse RAW264.7 cells at 2 uM using FITC-labeled test compound at 4 degC after 2 hrs in presence of clathrin-mediated endocytosis inhibitor chlorpromazine by trypan blue staining-based flow cytometry; format: ADME, cell-based; settings: raw264.7, 2 h
# Salmonella typhimurium [23] = experiment: Antibacterial activity against Salmonella typhimurium ATCC 14028 at pH 5 after 16 to 18 hrs by broth microdilution method; format: functional, Salmonella enterica subsp. enterica serovar Typhimurium; settings: Salmonella enterica
compound,measurement,setting,value
CC(C)[C@@H]1NC(=O)[C@H](C)NC(=O)[C@H](CC(N)=O)NC(=O)[C@H](CCCNC(=N)N)NC(=O)[C@H](Cc2ccc(O)cc2)NC(=O)[C@H](C(C)C)NC(=O)[C@@H]2CSSC[C@H](NC(=O)[C@H](C(C)C)NC(=O)[C@H](CCCNC(=N)N)NC1=O)C(=O)N[C@@H](Cc1cnc[nH]1)C(=O)N[C@@H](CCCNC(=N)N)C(=O)N[C@@H](CCCNC(=N)N)C(=O)N[C@@H](C(=O)N[C@@H](CC(N)=O)C(=O)O)CSSC[C@H](NC(=O)[C@H](Cc1ccccc1)NC(=O)[C@H](C)N)C(=O)N[C@@H](Cc1c[nH]c3ccccc13)C(=O)N[C@@H](CC(N)=O)C(=O)N[C@@H](C(C)C)C(=O)N2,Activity,Salmonella typhimurium [1],Active
same,Activity,Salmonella typhimurium [2],inactive
CC(C)[C@@H]1NC(=O)[C@H](C)NC(=O)[C@H](CC(N)=O)NC(=O)[C@H](CCCNC(=N)N)NC(=O)[C@H](Cc2ccc(O)cc2)NC(=O)[C@H](C(C)C)NC(=O)[C@@H]2CSSC[C@@H](NC(=O)[C@H](C(C)C)NC(=O)[C@@H](CCCNC(=N)N)NC1=O)C(=O)N[C@@H](Cc1cnc[nH]1)C(=O)N[C@H](CCCNC(=N)N)C(=O)N[C@@H](CCCNC(=N)N)C(=O)N[C@@H](C(=O)N[C@@H](CC(N)=O)C(=O)O)CSSC[C@H](NC(=O)[C@H](Cc1ccccc1)NC(=O)[C@H](C)NC(=O)[C@H](CCCNC(=N)N)NC(=O)[C@H](CCCNC(=N)N)NC(=O)[C@H](CCCNC(=N)N)NC(=O)[C@H](CCC(N)=O)NC(=O)[C@H](CCCNC(=N)N)NC(=O)[C@H](CCCNC(=N)N)NC(=O)[C@H](CCCCN)NC(=O)[C@H](CCCCN)NC(=O)[C@H](CCCNC(=N)N)NC(=O)CNC(=O)[C@@H](N)Cc1ccc(O)cc1)C(=O)N[C@@H](Cc1c[nH]c3ccccc13)C(=O)N[C@H](CC(N)=O)C(=O)N[C@@H](C(C)C)C(=O)N2,Activity,Salmonella typhimurium [1],Active
same,Activity,Salmonella typhimurium [3],Active
same,Activity,Salmonella typhimurium [2],inactive
same,Activity,Salmonella typhimurium [4],Active
O=C(O)c1cn(C2CC2)c2cc(N3CCNCC3)c(F)cc2c1=O [CIPROFLOXACIN],log(activity),Salmonella typhimurium [5],3.26
same,Activity,Salmonella typhimurium [6],Active
same,MIC,Salmonella typhimurium [7],0.05 µM
same,log(activity),Salmonella typhimurium [8],2.67
same,Activity,Salmonella typhimurium [9],98.11 - 99.99%
same,Survival,Salmonella typhimurium [10],5.5 ×10³ CFU/ml
CC(C)[C@@H]1NC(=O)[C@H](C)NC(=O)[C@H](CC(N)=O)NC(=O)[C@H](CCCNC(=N)N)NC(=O)[C@H](Cc2ccc(O)cc2)NC(=O)[C@H](C(C)C)NC(=O)[C@@H]2CSSC[C@@H](NC(=O)[C@H](C(C)C)NC(=O)[C@H](CCCNC(=N)N)NC1=O)C(=O)N[C@@H](Cc1cnc[nH]1)C(=O)N[C@@H](CCCNC(=N)N)C(=O)N[C@@H](CCCNC(=N)N)C(=O)N[C@H](C(=O)N[C@@H](CC(N)=O)C(=O)O)CSSC[C@H](NC(=O)[C@H](Cc1ccccc1)NC(=O)[C@H](C)NC(=O)[C@H](CCCNC(=N)N)NC(=O)[C@H](Cc1c[nH]c3ccccc13)NC(=O)[C@H](CCC(N)=O)NC(=O)[C@H](Cc1c[nH]c3ccccc13)NC(=O)[C@H](CCCNC(=N)N)NC(=O)[C@@H](N)CCCNC(=N)N)C(=O)N[C@@H](Cc1c[nH]c3ccccc13)C(=O)N[C@@H](CC(N)=O)C(=O)N[C@@H](C(C)C)C(=O)N2,Activity,Salmonella typhimurium [1],Active
same,Activity,Salmonella typhimurium [3],Active
same,Activity,Salmonella typhimurium [2],inactive
CC(C)[C@@H]1NC(=O)[C@H](C)NC(=O)[C@H](CC(N)=O)NC(=O)[C@H](CCCNC(=N)N)NC(=O)[C@H](Cc2ccc(O)cc2)NC(=O)[C@H](C(C)C)NC(=O)[C@@H]2CSSC[C@H](NC(=O)[C@H](C(C)C)NC(=O)[C@H](CCCNC(=N)N)NC1=O)C(=O)N[C@@H](Cc1cnc[nH]1)C(=O)N[C@@H](CCCNC(=N)N)C(=O)N[C@@H](CCCNC(=N)N)C(=O)N[C@H](C(=O)N[C@@H](CC(N)=O)C(=O)O)CSSC[C@H](NC(=O)[C@H](Cc1ccccc1)NC(=O)[C@H](C)NC(=O)[C@H](CCCNC(=N)N)NC(=O)[C@H](CCCNC(=N)N)NC(=O)[C@H](CCCNC(=N)N)NC(=O)[C@H](CCC(N)=O)NC(=O)[C@H](CCCNC(=N)N)NC(=O)[C@H](CCCNC(=N)N)NC(=O)[C@H](CCCCN)NC(=O)[C@H](CCCCN)NC(=O)[C@H](CCCNC(=N)N)NC(=O)CNC(=O)[C@@H](N)Cc1ccc(O)cc1)C(=O)N[C@@H](Cc1c[nH]c3ccccc13)C(=O)N[C@@H](CC(N)=O)C(=O)N[C@@H](C(C)C)C(=O)N2,Drug uptake,[11],Not Active
same,Drug uptake,[12],Not Active
same,Drug uptake,[13],8.3%
same,"viability at 8 h, 100 µM",[14],90.2%
same,Drug uptake,[15],Active
same,Drug uptake,[16],93.5%
same,Drug uptake,[17],99.9%
same,Drug uptake,[18],99.9%
same,Drug uptake,[19],Not Active
same,Drug uptake,[20],Dose-dependent effect and Tde
same,Drug uptake,[21],99.8%
same,Drug uptake,[22],Not Active
N=C(N)NCCC[C@H](NC(=O)[C@H](CCCNC(=N)N)NC(=O)[C@H](CCCNC(=N)N)NC(=O)[C@H](CCC(N)=O)NC(=O)[C@H](CCCNC(=N)N)NC(=O)[C@H](CCCNC(=N)N)NC(=O)[C@H](CCCCN)NC(=O)[C@H](CCCCN)NC(=O)[C@H](CCCNC(=N)N)NC(=O)CNC(=O)[C@@H](N)Cc1ccc(O)cc1)C(=O)O,MIC,Salmonella typhimurium [7],> 80 µM
H-RRWQWR-OH,MIC,Salmonella typhimurium [7],> 80 µM
CC(C)[C@@H]1NC(=O)[C@H](C)NC(=O)[C@H](CC(N)=O)NC(=O)[C@H](CCCNC(=N)N)NC(=O)[C@H](Cc2ccc(O)cc2)NC(=O)[C@H](C(C)C)NC(=O)[C@@H]2CSSC[C@H](NC(=O)[C@H](C(C)C)NC(=O)[C@H](CCCNC(=N)N)NC1=O)C(=O)N[C@@H](Cc1cnc[nH]1)C(=O)N[C@@H](CCCNC(=N)N)C(=O)N[C@@H](CCCNC(=N)N)C(=O)N[C@H](C(=O)N[C@@H](CC(N)=O)C(=O)O)CSSC[C@H](NC(=O)[C@H](Cc1ccccc1)NC(=O)[C@H](C)NC(=O)[C@H](CCCNC(=N)N)NC(=O)[C@H](Cc1c[nH]c3ccccc13)NC(=O)[C@H](CCC(N)=O)NC(=O)[C@H](Cc1c[nH]c3ccccc13)NC(=O)[C@H](CCCNC(=N)N)NC(=O)[C@@H](N)CCCNC(=N)N)C(=O)N[C@@H](Cc1c[nH]c3ccccc13)C(=O)N[C@@H](CC(N)=O)C(=O)N[C@@H](C(C)C)C(=O)N2,Drug uptake,[11],Not Active
same,Drug uptake,[12],Not Active
same,Drug uptake,[13],17.9%
same,"viability at 8 h, 100 µM",[14],86.5%
same,Drug uptake,[15],Active
same,Drug uptake,[16],28.3%
same,Drug uptake,[17],70.9%
same,Drug uptake,[18],96.3%
same,Drug uptake,[19],Not Active
same,Drug uptake,[20],Dose-dependent effect and Tde
same,Drug uptake,[21],57.2%
same,Drug uptake,[22],Not Active
CC(C)[C@@H]1NC(=O)[C@H](C)NC(=O)[C@H](CC(N)=O)NC(=O)[C@H](CCCNC(=N)N)NC(=O)[C@H](Cc2ccc(O)cc2)NC(=O)[C@H](C(C)C)NC(=O)[C@@H]2CSSC[C@H](NC(=O)[C@H](C(C)C)NC(=O)[C@H](CCCNC(=N)N)NC1=O)C(=O)N[C@@H](Cc1cnc[nH]1)C(=O)N[C@@H](CCCNC(=N)N)C(=O)N[C@@H](CCCNC(=N)N)C(=O)N[C@H](C(=O)N[C@@H](CC(N)=O)C(=O)O)CSSC[C@H](NC(=O)[C@H](Cc1ccccc1)NC(=O)[C@H](C)N)C(=O)N[C@@H](Cc1c[nH]c3ccccc13)C(=O)N[C@@H](CC(N)=O)C(=O)N[C@@H](C(C)C)C(=O)N2,MIC,Salmonella typhimurium [7],0.78 µM
same,Activity,Salmonella typhimurium [9],22.41 - 69.74%
same,Survival,Salmonella typhimurium [10],2.3 ×10⁵ CFU/ml
same,MIC,Salmonella typhimurium [23],25 µM
